Measured values reported in publication PMC10825133, “Repurposing proteasome inhibitors for improved treatment of triple-negative breast cancer” (Cell Death Discovery, 2024).
Where two headings read alike, the source gives them in different places. Residues, ends and D or L forms follow the SMILES beside them. *: point of attachment. Cbz = O=C(OCc1ccccc1)*

Assays:
CAL-148 cells = experiment: Resazurin-based cell viability assay, monotherapy drug screen; set-up: species or system human; AUC: unit not given beside the values; details: for AUC: area under the dose response curve, 24 h; for GRmax: drug efficacy at highest tested dose (<0 cytotoxic, 0 cytostatic, >0 partial growth inhibition); for IC50: Homo sapiens
Protocol: (§1) Eighteen pharmaceutical compounds were purchased from Selleckchem (Supplementary Table 2). Stock solutions were prepared using dimethyl sulfoxide (DMSO; Merck), physiological saline (sodium chloride 0.9%) or Milli-Q water, and stored at −80 °C. […] Matched concentration solvent vehicle controls were used for each drug concentration. The drug screens were performed in triplicate and repeated three (monotherapy) or two (combination therapy) times (Fig. 7).
(§2) The optimal seeding density per 96-well was determined for each cell line as previously described. The cells were seeded at a density of 4.0 × 10^3 to 7.5 × 10^3 (cell type dependent) in 96-well clear, flat-bottom microplates (Corning Life Sciences, Sigma-Aldrich) in 100 µl complete culture medium (Supplementary Table 1) and cultured for 24 h. Cell viability was determined using the resazurin assay in untreated cells at the time of plating (t = 0) and treated cells after 24 h drug treatment (Fig. 7). Percentage cell viability was calculated as 100% × (absorbance of treated cells – absorbance of background controls) / (absorbance of matched solvent vehicle controls – absorbance of background controls). The area under the curve (AUC), half-maximal inhibitory concentration (IC50), drug potency (GR50), and drug efficacy (GRmax) were determined for each compound using the GRmetrics (version 1.20.0) package in R. The monotherapy data were evaluated with the IDACombo (version 1.0.2) package in R to predict potential drug combinations (Table 1). SynergyFinder (version 3.2.10) package in R was used to identify synergistic drug combinations.
(§3) Eighteen pharmaceutical compounds were purchased from Selleckchem. […] The solubility of the compound was enhanced by pre-heating the solvent (lukewarm), if necessary. […] The stock solutions were stored at -80°C. […] Matched concentration solvent vehicle controls were used for each drug concentration. The drug screens were performed in triplicate and repeated three times for the monotherapies and twice for the combination treatments. The drug(s) and corresponding controls were plated in 96-well PCR plates (VWR) and stored at -20°C (Fig. 6). The drug plates were thawed, centrifuged (3000 rpm for 30s), and acclimatized to RT before the drugs were added to the cells. New drug plates were prepared for each drug screen.
Cell viability was measured daily (day 0 [plating day] to day 4) using 0.2 mg/ml resazurin solution prepared from resazurin sodium salt (Fisher Scientific) dissolved in sterile 1xPBS (ThermoFisher Scientific). Before use, the resazurin solution was brought to RT before 10 µl (10% of cell medium volume) was added to each 96-well and incubated for 4h at 37°C. […] The slope of the curve was used to determine the optimal seeding density, i.e., the highest seeding density with linear growth between days 1 and 3.
(§4) The cells were seeded at a density of 4.0x10^3 to 7.5x10^3 (cell type-dependent) in 96-well clear, flat-bottom microplates (Corning Life Sciences, Sigma-Aldrich) in 100 µl culture medium supplemented with 10% FBS and cultured for 24h. Cell viability was determined using the resazurin assay after 24h drug treatment (Fig. 6). Percentage cell viability was calculated as 100% × (absorbance of treated cells – absorbance of background controls) / (absorbance of matched solvent vehicle controls – absorbance of background controls). Normalized growth rate inhibition (GR) was assessed using the absorbance of untreated cells after the time of plating (t = 0). […] For combination treatment, the monotherapy data were evaluated with the IDACombo (version 1.0.2)[20] package in R to predict potential drug combinations (Table 1). SynergyFinder (version 3.2.10)[21] package in R was used to identify synergistic drug combinations.

BT-549 cells = experiment: as above; set-up: species or system human; AUC: scale not given here; details: for AUC: area under the dose response curve, 24 h; for GRmax: drug efficacy at highest tested dose (<0 cytotoxic, 0 cytostatic, >0 partial growth inhibition); for IC50: Homo sapiens
Protocol: (§5) Eighteen pharmaceutical compounds were purchased from Selleckchem. […] The stock solutions were stored at -80°C. […] New drug plates were prepared for each drug screen.
(§6) To determine the optimal seeding density and ensure that the cells were in the exponential phase during the duration of the experiment (approx. 52h), each cell line (BT-549, CAL-148, HCC1806, HCC38, HCC70, MCF-10A, MCF-7, MDA-MB-436, MDA-MB-453, and MDA-MB-468) was seeded at different concentrations (1000 to 16000 cells) per 96-well, as previously described. Cell viability was measured daily (day 0 [plating day] to day 4) using 0.2 mg/ml resazurin solution prepared from resazurin sodium salt (Fisher Scientific) dissolved in sterile 1xPBS (ThermoFisher Scientific). Before use, the resazurin solution was brought to RT before 10 µl (10% of cell medium volume) was added to each 96-well and incubated for 4h at 37°C. The absorbance was measured with a 560 nm excitation filter and a 615 nm emission filter in a Wallac 1420 VICTOR2™ microplate reader (Perkin Elmer). The slope of the curve was used to determine the optimal seeding density, i.e., the highest seeding density with linear growth between days 1 and 3.

HCC1806 cells = experiment: as above; set-up: species or system human; AUC: scale not given here; details: for AUC: area under the dose response curve, 24 h; for GRmax: drug efficacy at highest tested dose (<0 cytotoxic, 0 cytostatic, >0 partial growth inhibition); for IC50: Homo sapiens
Protocol: as §5, §6

HCC38 cells = experiment: as above; set-up: species or system human; AUC: scale not given here; details: for AUC: area under the dose response curve, 24 h; for GRmax: drug efficacy at highest tested dose (<0 cytotoxic, 0 cytostatic, >0 partial growth inhibition); for IC50: Homo sapiens
Protocol: as §5, §6

HCC70 cells = experiment: as above; set-up: species or system human; AUC: scale not given here; details: for AUC: area under the dose response curve, 24 h; for GRmax: drug efficacy at highest tested dose (<0 cytotoxic, 0 cytostatic, >0 partial growth inhibition); for IC50: Homo sapiens
Protocol: as §5, §6

MCF-7 cells = experiment: as above; set-up: species or system human; AUC: scale not given here; details: for IC50: Homo sapiens; for AUC: area under the dose response curve, 24 h; for GRmax: drug efficacy at highest tested dose (<0 cytotoxic, 0 cytostatic, >0 partial growth inhibition)
Protocol: as §5, §6

MDA-MB-436 cells = experiment: as above; set-up: species or system human; AUC: scale not given here; details: for IC50: Homo sapiens; for AUC: area under the dose response curve, 24 h; for GRmax: drug efficacy at highest tested dose (<0 cytotoxic, 0 cytostatic, >0 partial growth inhibition)
Protocol: as §5, §6

MDA-MB-468 cells = experiment: as above; set-up: species or system human; AUC: scale not given here; details: for IC50: Homo sapiens; for AUC: area under the dose response curve, 24 h
Protocol: as §5, §6

[1] = test system: eight TNBC cell lines (BT-549, CAL-148, HCC1806, HCC38, HCC70, MDA-MB-436, MDA-MB-453, MDA-MB-468); experiment: Monotherapy drug screen, mean across the TNBC cell lines; details: 24 h
Protocol: as §1, §2, §3, §4

[2] = CAL-148, growth rate inhibition concentration at GR(c) = 0.5, 24 h, read-out: GR50 (the source's name)
[3] = BT-549, growth rate inhibition concentration at GR(c) = 0.5, 24 h, read-out: GR50 (the source's name)
[4] = HCC1806, 24 h drug treatment, read-out: IC50
[5] = HCC1806, growth rate inhibition concentration at GR(c) = 0.5, 24 h, read-out: GR50 (the source's name)
[6] = HCC38, 24 h drug treatment, read-out: IC50
[7] = HCC38, growth rate inhibition concentration at GR(c) = 0.5, 24 h, read-out: GR50 (the source's name)
[8] = HCC70, 24 h drug treatment, read-out: IC50
[9] = HCC70, growth rate inhibition concentration at GR(c) = 0.5, 24 h, read-out: GR50 (the source's name)
[10] = MCF7, MCF-7, growth rate inhibition concentration at GR(c) = 0.5, 24 h, read-out: GR50 (the source's name)
[11] = MDA-MB-436, growth rate inhibition concentration at GR(c) = 0.5, 24 h, read-out: GR50 (the source's name)
[12] = MDA-MB-468, 24 h drug treatment, read-out: IC50
[13] = MDA-MB-468, growth rate inhibition concentration at GR(c) = 0.5, 24 h, read-out: GR50 (the source's name)

| Structure (SMILES) | AUC (CAL-148 cells; CAL-148) | GRmax (CAL-148 cells; CAL-148) | IC50 (CAL-148 cells; [2]) [µM] | AUC (BT-549 cells; BT-549) | GRmax (BT-549 cells; BT-549) | AUC (HCC1806 cells; HCC1806) | GRmax (HCC1806 cells; HCC1806) | IC50 (HCC1806 cells; [5]) [µM] | AUC (HCC38 cells; HCC38) | GRmax (HCC38 cells; HCC38) | IC50 (HCC38 cells; [6]) [µM] | IC50 (HCC38 cells; [7]) [µM] | AUC (HCC70 cells; HCC70) | GRmax (HCC70 cells; HCC70) | IC50 (HCC70 cells; [9]) [µM] | AUC (MCF-7 cells; MCF-7) | GRmax (MCF-7 cells; MCF-7) | AUC (MDA-MB-436 cells; MDA-MB-436) | GRmax (MDA-MB-436 cells; MDA-MB-436) | AUC (MDA-MB-468 cells; MDA-MB-468) | other results |
| --- | --- | --- | --- | --- | --- | --- | --- | --- | --- | --- | --- | --- | --- | --- | --- | --- | --- | --- | --- | --- | --- |
| CC(C)C[C@H](NC(=O)[C@H](Cc1ccccc1)NC(=O)c1cnccn1)B(O)O [Bortezomib] | 0.77 | 0.17 | 0.12 | 0.66 | 0.39 | 0.70 | 0.33 | 0.38 | 0.40 | −0.99 | 0.024 | 0.01 | 0.68 | −0.55 | 0.1 | 0.78 | −0.43 | 0.75 | −0.76 | 0.57 | IC50 (BT-549 cells; [3]): 0.1 µM; IC50 (HCC1806 cells; [4]): 0.79 µM; IC50 (HCC70 cells; [8]): 0.81 µM; IC50 (MCF-7 cells; [10]): 0.031 µM; IC50 (MDA-MB-436 cells; [11]): 0.021 µM; IC50 (MDA-MB-468 cells; [12]): 0.054 µM; IC50 (MDA-MB-468 cells; [13]): 0.017 µM; IC50 ([1]; Homo sapiens, read-out: GR50 (mean ± SD)): 100 ± 110 nM; area under the dose response curve (AUC), mean ± SD ([1]; TNBC cell lines): 0.66 ± 0.10 |
| CC(C)C[C@@H](C=O)NC(=O)[C@H](CC(C)C)NC(=O)[C@H](CC(C)C)NC(=O)OCc1ccccc1 [MG 132, MG-132] (Cbz-Leu-Leu-Leu-aldehyde) | 0.89 | 0.22 | – | 0.83 | 0.26 | 0.82 | 0.31 | – | 0.71 | −0.98 | – | – | 0.87 | −0.40 | – | 0.87 | −0.32 | 0.86 | −0.88 | 0.81 | IC50 (CAL-148 cells; CAL-148, 24 h, read-out: GR50 (µM)): 3.4 µM; IC50 (BT-549 cells; BT-549, 24 h): 4.3 µM; IC50 (BT-549 cells; BT-549, 24 h, read-out: GR50 (µM)): 1.4 µM; IC50 (HCC1806 cells; HCC1806, 24 h): 3.1 µM; IC50 (HCC1806 cells; HCC1806, 24 h, read-out: GR50 (µM)): 2.5 µM; IC50 (HCC38 cells; HCC38, 24 h): 0.57 µM; IC50 (HCC38 cells; HCC38, 24 h, read-out: GR50 (µM)): 0.37 µM; IC50 (HCC70 cells; HCC70, 24 h): 3.7 µM; IC50 (HCC70 cells; HCC70, 24 h, read-out: GR50 (µM)): 2.1 µM; IC50 (MCF-7 cells; MCF7, 24 h, read-out: GR50 (µM)): 0.57 µM; IC50 (MDA-MB-436 cells; MDA-MB-436, 24 h, read-out: GR50 (µM)): 0.29 µM; IC50 (MDA-MB-468 cells; MDA-MB-468, 24 h): 1.4 µM; IC50 (MDA-MB-468 cells; MDA-MB-468, 24 h, read-out: GR50 (µM)): 0.61 µM |
| COC[C@H](NC(=O)c1cnc(C)s1)C(=O)N[C@@H](COC)C(=O)N[C@@H](Cc1ccccc1)C(=O)[C@@]1(C)CO1 [Oprozomib] | 0.90 | 0.14 | 1.1 | 0.81 | 0.38 | 0.85 | 0.42 | 6 | 0.73 | −0.98 | 0.68 | 0.33 | 0.89 | −0.10 | 3.7 | 0.88 | −0.45 | 0.84 | −0.93 | 0.76 | IC50 (BT-549 cells; [3]): 0.94 µM; IC50 (HCC1806 cells; [4]): 6 µM; IC50 (HCC70 cells; [8]): 7.6 µM; IC50 (MCF-7 cells; [10]): 0.27 µM; IC50 (MDA-MB-436 cells; [11]): 0.075 µM; IC50 (MDA-MB-468 cells; [12]): 3.2 µM; IC50 (MDA-MB-468 cells; [13]): 0.39 µM |
| CC(=O)O[C@H]1C(=O)[C@@]2(C)[C@H]([C@H](OC(=O)c3ccccc3)[C@]3(O)C[C@H](OC(=O)[C@H](O)[C@@H](NC(=O)c4ccccc4)c4ccccc4)C(C)=C1C3(C)C)[C@]1(OC(C)=O)CO[C@@H]1C[C@@H]2O [Paclitaxel] | 0.92 | 0.51 | 1.1 | 0.87 | 0.58 | 0.72 | 0.51 | 0.84 | 0.81 | −0.50 | 7.1 | 0.11 | 0.86 | 0.46 | 0.38 | 0.79 | −0.56 | 0.78 | −0.97 | 0.81 | IC50 (MCF-7 cells; [10]): 0.041 µM; IC50 (MDA-MB-436 cells; [11]): 0.055 µM; IC50 (MDA-MB-468 cells; [13]): 1.4 µM |
